This passage reports IC50 results from patent US20040224958A1, “Pyridopyrimidinone derivatives for treatment of neurodegenerative disease” (priority 2000, published 2004).

One test deals with cdk4/D (Homo sapiens, UniProt P11802). Nature of the test: Cyclin-Dependent Kinase 4 (cdk4) Assay. The format is biochemical. As to conditions: read-out: cdk4/D IC50. As for the experimental part: A typical assay, for instance, measures inhibitory activity against the cyclin D dependent kinase 4 enzyme (cdk4/D). […] The cdk4 assay was carried out as follows.
Cyclin-Dependent Kinase 4 (cdk4) Assay
All components except the ATP were added to the wells, and the plate was placed on a plate mixer for 2 minutes. The reaction was started by adding [^32P]ATP and the plate was incubated at 25° C. for 15 minutes. The reaction was terminated by addition of 0.1 mL of 20% trichloroacetic acid (TCA). The plate was kept at 4° C. for at least 1 hour to allow the substrate to precipitate. The wells were then washed five times with 0.2 mL of 10% TCA and ^32P incorporation was determined with a beta plate counter (Wallac Inc., Gaithersburg, Md.).

The target of the next test is Cdk5/p25 (Homo sapiens, UniProt Q00535). Nature of the test: Cyclin-Dependent Kinase 5 High Throughput Screening (cdk5-HTS) Assay. As to conditions: high throughput screen. It counts as biochemical. As for the experimental part: Cyclin-Dependent Kinase 5 High Throughput Screening (cdk5-HTS) Assay
Enzyme assays for IC50 determinations were performed in 96-Pierce Reacti-Bind™ White Opaque Glutatione Coated Plates (Cat. No. 15240B).
The total volume was 0.100 mL containing a final concentration of 50 mM TRIS (tris[hydroxymethyl]aminomethane) at pH 7.4, 50 mM NaCl, 10 mM MgCl2, 5 mM dithiothreitol, 20 μM ATP containing 16 μCi/mL of Redivue[y33P]ATP (Amersham Pharmacia Biotech Cat. No. AH9968), 1.0 μg/mL Cdk5/p25, 20 μg/mL GST-RbCOOH, and appropriate dilutions of a compound of the present invention. The reaction was started by adding[^33P]ATP, and the plate was shaken for 30 seconds, then incubated at room temperature for 30 minutes. The reaction was terminated by addition of 0.05 mL of 120 mM EDTA. The plate was kept at room temperature for 45 minutes to allow substrate to bind to the walls of the plate. The wells were then washed three times with 0.2 mL of 1×PBS. Once thoroughly dry, 0.140 mL of MicroScint™2O (Packard Bioscience Cat. No. 87-9081) cocktail was added to all wells. The incorporation of ^33P was determined with a beta plate counter (Packard Topcount).

The target of the next test is cdk2/cyclinE (Homo sapiens, UniProt P24941). Nature of the test: Cyclin-Dependent Kinase Assay cdk2/cyclinE.
In the next test the target is cdk2/cyclinA (Homo sapiens, UniProt P24941). Put plainly: Cyclin-Dependent Kinase Assay cdk2/cyclinA.
The next test deals with cdc2/cyclinB (Homo sapiens, UniProt P06493). Put plainly: Cyclin-Dependent Kinase Assay cdc2/cyclinB.

Like-named read-outs stand apart in the source and are kept apart here.

Sequence of cdc2/cyclinB (P06493 whole entry): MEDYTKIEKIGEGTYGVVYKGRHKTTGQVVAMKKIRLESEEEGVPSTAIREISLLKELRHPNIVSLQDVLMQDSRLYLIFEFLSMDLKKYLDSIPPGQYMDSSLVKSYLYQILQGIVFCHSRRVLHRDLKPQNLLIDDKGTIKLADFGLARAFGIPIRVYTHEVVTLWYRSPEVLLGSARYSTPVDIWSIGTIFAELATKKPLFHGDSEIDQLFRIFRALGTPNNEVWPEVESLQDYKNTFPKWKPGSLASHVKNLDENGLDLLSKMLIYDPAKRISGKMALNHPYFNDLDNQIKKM
Sequence of cdc2/cyclinB (P14635 whole entry, further chain): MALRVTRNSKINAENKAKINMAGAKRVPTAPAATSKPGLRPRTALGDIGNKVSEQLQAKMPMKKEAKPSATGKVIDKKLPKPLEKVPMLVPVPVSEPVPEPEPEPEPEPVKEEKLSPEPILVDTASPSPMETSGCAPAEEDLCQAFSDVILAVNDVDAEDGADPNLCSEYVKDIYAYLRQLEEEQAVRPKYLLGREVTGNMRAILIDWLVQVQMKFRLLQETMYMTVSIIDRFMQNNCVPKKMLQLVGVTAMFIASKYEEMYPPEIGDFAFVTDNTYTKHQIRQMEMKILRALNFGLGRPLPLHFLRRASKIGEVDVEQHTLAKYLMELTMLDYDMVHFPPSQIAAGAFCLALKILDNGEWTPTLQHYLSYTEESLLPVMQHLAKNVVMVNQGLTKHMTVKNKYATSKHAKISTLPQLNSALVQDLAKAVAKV
Sequence of cdk4/D (P11802 whole entry): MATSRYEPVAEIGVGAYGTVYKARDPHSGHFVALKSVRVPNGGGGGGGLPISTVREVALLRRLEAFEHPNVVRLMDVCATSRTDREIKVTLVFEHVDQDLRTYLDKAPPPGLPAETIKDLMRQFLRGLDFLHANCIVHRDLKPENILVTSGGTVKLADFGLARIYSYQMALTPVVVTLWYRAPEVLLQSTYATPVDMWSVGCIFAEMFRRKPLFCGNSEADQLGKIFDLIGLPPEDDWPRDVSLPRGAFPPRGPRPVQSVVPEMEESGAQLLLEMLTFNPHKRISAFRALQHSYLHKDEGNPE
Sequence of cdk4/D (P24385 whole entry, further chain): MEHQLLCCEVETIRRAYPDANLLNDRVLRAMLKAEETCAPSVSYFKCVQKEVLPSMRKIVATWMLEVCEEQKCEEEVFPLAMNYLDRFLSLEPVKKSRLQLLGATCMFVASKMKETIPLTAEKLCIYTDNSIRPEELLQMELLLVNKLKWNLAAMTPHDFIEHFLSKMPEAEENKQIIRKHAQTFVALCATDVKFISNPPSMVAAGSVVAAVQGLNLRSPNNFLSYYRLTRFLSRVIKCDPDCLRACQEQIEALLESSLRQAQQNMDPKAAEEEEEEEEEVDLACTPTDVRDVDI

Take “2-(3-Chloro-4-iodo-phenylamino)-8-propyl-8H-pyrido[2,3-d]pyrimidin-7-one [Example 573]”: the IC50 was 190 nM on cdk4/D; 100 nM against Cdk5/p25; 180 nM at cdk2/cyclinE (read-out: cdk2/E IC50); 820 nM on cdk2/cyclinA (read-out: cdk2/A IC50); 260 nM at cdc2/cyclinB (read-out: cdk1/B IC50).

For “2-(3-Hydroxy-4-methoxy-phenylamino)-8-propyl-8H-pyrido[2,3-d]pyrimidin-7-one [Example 296]”, the IC50 on cdk4/D turned out to be 540 nM; at Cdk5/p25, 120 nM; on cdk2/cyclinE (read-out: cdk2/E IC50), 240 nM; at cdk2/cyclinA (read-out: cdk2/A IC50), 960 nM; on cdc2/cyclinB (read-out: cdk1/B IC50), 440 nM.

Consider `CCn1c(=O)ccc2cnc(Nc3cc(F)cc(F)c3)nc21` [Example 303, 2-(3,5-Difluoro-phenylamino)-8-ethyl-8H-pyrido[2,3-d]pyrimidin-7-one], for which the IC50 at Cdk5/p25 was found to be 470 nM; at cdk2/cyclinE (cdk2/E IC50), 840 nM; against cdk2/cyclinA (cdk2/A IC50) it was 1200 nM; on cdc2/cyclinB it was 930 nM.

On to `CCn1c(=O)ccc2cnc(Nc3cccc(C(F)(F)F)c3)nc21` [Example 305, 8-Ethyl-2-(3-trifluoromethyl-phenylamino)-8H-pyrido[2,3-d]pyrimidin-7-one], for which the IC50 at Cdk5/p25 is 240 nM; on cdk2/cyclinE (cdk2/E IC50) it was 670 nM; against cdk2/cyclinA (cdk2/A IC50) it was 1100 nM; at cdc2/cyclinB, 550 nM.

For the molecule `CCCn1c(=O)ccc2cnc(Nc3ccc(Cl)c(C(F)(F)F)c3)nc21` [Example 312, 2-(4-Chloro-3-trifluoromethyl-phenylamino)-8-propyl-8H-pyrido[2,3-d]pyrimidin-7-one], the IC50 against Cdk5/p25 is 112 nM; on cdk2/cyclinE (read-out: cdk2/E IC50), 330 nM; on cdk2/cyclinA (read-out: cdk2/A IC50) it was 2670 nM; at cdc2/cyclinB (read-out: cdk1/B IC50), 268 nM.

As to `CCCn1c(=O)ccc2cnc(Nc3ccc(F)c(F)c3)nc21` [Example 343, 2-(3,4-Difluoro-phenylamino)-8-propyl-8H-pyrido[2,3-d]pyrimidin-7-one], the IC50 against Cdk5/p25 turned out to be 110 nM; at cdk2/cyclinE (cdk2/E IC50), 120 nM; against cdk2/cyclinA (cdk2/A IC50), 290 nM; on cdc2/cyclinB it was 280 nM.

For `CCCn1c(=O)ccc2cnc(Nc3cc(F)cc(F)c3)nc21` [Example 349, 2-(3,5-Difluoro-phenylamino)-8-propyl-8H-pyrido[2,3-d]pyrimidin-7-one], the IC50 at Cdk5/p25 stood at 200 nM; against cdk2/cyclinE (cdk2/E IC50) it was 530 nM; at cdk2/cyclinA (cdk2/A IC50) it was 1100 nM; against cdc2/cyclinB, 880 nM.

Consider `CCCn1c(=O)ccc2cnc(Nc3cccc(NC(C)=O)c3)nc21` [Example 353, N-[3-(7-Oxo-8-propyl-7,8-dihydro-pyrido[2,3-d]pyrimidin-2-ylamino)-phenyl]-acetamide], for which the IC50 on Cdk5/p25 was 230 nM; against cdk2/cyclinE (cdk2/E IC50), 320 nM; at cdk2/cyclinA (cdk2/A IC50), 460 nM; against cdc2/cyclinB, 710 nM.

`CCCn1c(=O)ccc2cnc(Nc3ccc(O)c(CN4CCOCC4)c3)nc21` [Example 355, 2-(4-Hydroxy-3-morpholin-4-ylmethyl-phenylamino)-8-propyl-8H-pyrido[2,3-d]pyrimidin-7-one]: the IC50 stood at 300 nM on Cdk5/p25, 680 nM against cdk2/cyclinE (cdk2/E IC50), 1100 nM against cdk2/cyclinA (cdk2/A IC50) and 500 nM at cdc2/cyclinB.

Turning to `CCCn1c(=O)ccc2cnc(Nc3ccc(OC(F)(F)F)cc3)nc21` [Example 362, 8-Propyl-2-(4-trifluoromethoxy-phenylamino)-8H-pyrido[2,3-d]pyrimidin-7-one], the IC50 at Cdk5/p25 turned out to be 190 nM; at cdk2/cyclinA (cdk2/A IC50) it was 4000 nM; against cdc2/cyclinB, 270 nM.

Consider `CCCCn1c(=O)ccc2cnc(Nc3c(F)cc(F)cc3F)nc21` [Example 366, 8-Butyl-2-(2,4,6-trifluoro-phenylamino)-8H-pyrido[2,3-d]pyrimidin-7-one], for which the IC50 amounted to 699 nM against Cdk5/p25, 255 nM against cdk2/cyclinE (cdk2/E IC50), 882 nM against cdk2/cyclinA (cdk2/A IC50) and 1320 nM on cdc2/cyclinB.

Turning to `CCCCn1c(=O)ccc2cnc(Nc3cc(OC)c(OC)c(OC)c3)nc21` [Example 389, 8-Butyl-2-(3,4,5-trimethoxy-phenylamino)-8H-pyrido[2,3-d]pyrimidin-7-one], the IC50 against Cdk5/p25 worked out at 200 nM; on cdk2/cyclinE (cdk2/E IC50), 320 nM; on cdk2/cyclinA (cdk2/A IC50), 870 nM; against cdc2/cyclinB, 450 nM.

For the molecule `CC(C)n1c(=O)ccc2cnc(Nc3ccc(C#N)c(C#N)c3)nc21` [Example 423, 4-(8-Isopropyl-7-oxo-7,8-dihydro-pyrido[2,3-d]pyrimidin-2-ylamino)-phthalonitrile], the IC50 came to 160 nM on Cdk5/p25, 1100 nM against cdk2/cyclinE (cdk2/E IC50), 2600 nM against cdk2/cyclinA (cdk2/A IC50) and 1800 nM against cdc2/cyclinB.

As for `CC(C)n1c(=O)ccc2cnc(Nc3ccc(O)c(CN4CCOCC4)c3)nc21` [Example 436, 2-(4-Hydroxy-3-morpholin-4-ylmethyl-phenylamino)-8-isopropyl-8H-pyrido[2,3-d]pyrimidin-7-one], the IC50 on cdk4/D came to 1800 nM; against Cdk5/p25, 970 nM; at cdk2/cyclinE (cdk2/E IC50), 340 nM; against cdk2/cyclinA (cdk2/A IC50), 730 nM.

For the molecule `Cc1ccc(Nc2ncc3ccc(=O)n(C(C)C)c3n2)cc1NS(C)(=O)=O` [Example 439, N-[5-(8-Isopropyl-7-oxo-7,8-dihydro-pyrido[2,3-d]pyrimidin-2-ylamino)-2-methyl-phenyl]-methanesulfonamide], the IC50 at cdk4/D came to 310 nM; at Cdk5/p25, 120 nM; at cdk2/cyclinA (cdk2/A IC50), 630 nM; against cdc2/cyclinB, 400 nM.

For `CCC(C)n1c(=O)ccc2cnc(Nc3ccc(OC)c(F)c3)nc21` (stereo not drawn) [Example 462, 8-sec-Butyl-2-(3-fluoro-4-methoxy-phenylamino)-8H-pyrido[2,3-d]pyrimidin-7-one], the IC50 was 10 nM on Cdk5/p25, 60 nM at cdk2/cyclinE (cdk2/E IC50), 78 nM against cdk2/cyclinA (cdk2/A IC50) and 88 nM against cdc2/cyclinB.

As to `CCC(C)n1c(=O)ccc2cnc(Nc3cccc(C(F)(F)F)c3)nc21` (stereo not drawn) [Example 477, 8-sec-Butyl-2-(3-trifluoromethyl-phenylamino)-8H-pyrido[2,3-d]pyrimidin-7-one], the IC50 at Cdk5/p25 was 38 nM; against cdk2/cyclinE (cdk2/E IC50), 260 nM; against cdk2/cyclinA (cdk2/A IC50) it was 370 nM; against cdc2/cyclinB it was 170 nM.

Turning to `CCC(CC)n1c(=O)ccc2cnc(Nc3cc(OC)c(OC)c(OC)c3)nc21` [Example 501, 8-(1-Ethyl-propyl)-2-(3,4,5-trimethoxy-phenylamino)-8H-pyrido[2,3-d]pyrimidin-7-one], the IC50 worked out at 81 nM on Cdk5/p25, 240 nM against cdk2/cyclinE (cdk2/E IC50), 760 nM against cdk2/cyclinA (cdk2/A IC50) and 280 nM against cdc2/cyclinB.

In the case of `O=c1ccc2cnc(Nc3ccc(F)c(C(F)(F)F)c3)nc2n1C1CCCC1` [Example 534, 8-Cyclopentyl-2-(4-fluoro-3-trifluoromethyl-phenylamino)-8H-pyrido[2,3-d]pyrimidin-7-one], the IC50 at cdk4/D was 340 nM; against Cdk5/p25 it was 45 nM; at cdk2/cyclinA (cdk2/A IC50), 340 nM; against cdc2/cyclinB, 190 nM.

As to `Nc1c(Cl)cc(Nc2ncc3ccc(=O)n(C4CCCC4)c3n2)cc1Cl` [Example 557, 2-(4-Amino-3,5-dichloro-phenylamino)-8-cyclopentyl-8H-pyrido[2,3-d]pyrimidin-7-one], the IC50 amounted to 120 nM at cdk4/D, 96 nM against Cdk5/p25, 130 nM against cdk2/cyclinA (cdk2/A IC50) and 73 nM against cdc2/cyclinB.

In the case of `O=c1ccc2cnc(Nc3ccc(Br)c(C(F)(F)F)c3)nc2n1CC1CC1` [Example 589, 2-(4-Bromo-3-trifluoromethyl-phenylamino)-8-cyclopropylmethyl-8H-pyrido[2,3-d]pyrimidin-7-one], the IC50 was found to be 570 nM on Cdk5/p25, 190 nM against cdk2/cyclinE (cdk2/E IC50), 710 nM on cdk2/cyclinA (cdk2/A IC50) and 1300 nM at cdc2/cyclinB.

Take `O=c1ccc2cnc(Nc3ccc(C(F)(F)F)cc3)nc2n1CC1CC1` [Example 590, 8-Cyclopropylmethyl-2-(4-trifluoromethyl-phenylamino)-8H-pyrido[2,3-d]pyrimidin-7-one]: the IC50 on cdk4/D stood at 460 nM; at Cdk5/p25, 160 nM; against cdk2/cyclinA (cdk2/A IC50), 320 nM; at cdc2/cyclinB it was 650 nM.

Turning to `O=c1ccc2cnc(Nc3cc(Cl)c(O)c(Cl)c3)nc2n1CC(F)(F)F` [Example 598, 2-(3,5-Dichloro-4-hydroxy-phenylamino)-8-(2,2,2-trifluoro-ethyl)-8H-pyrido[2,3-d]pyrimidin-7-one], the IC50 against Cdk5/p25 worked out at 525 nM; at cdk2/cyclinE (cdk2/E IC50), 523 nM; on cdk2/cyclinA (cdk2/A IC50), 970 nM; against cdc2/cyclinB, 455 nM.
